Laboratory results as given in publication PMC2363760, “A novel doxorubicin-glucuronide prodrug DOX-GA3 for tumour-selective chemotherapy: distribution and efficacy in experimental human ovarian cancer” (British Journal of Cancer, 2001).
pIC50: −log10 of the molar value. Where two headings read alike, the source gives them in different places.

Experiments:
β-glucuronidase [1] = conditions: ref Tomino and Paigen, 1975; cited from earlier work
OVCAR-3 xenografts = conditions: for GI % (maximum growth inhibition): DOX 8 or DOX-GA3 500 mg kg-1 i.v. weekly x 2; for TD14 (tumour volume doubling time from a relative volume of 1 to 4) / Weight loss / Weight day 14: DOX 8 or DOX-GA3 500 mg kg-1 i.v. days 0,7
OVCAR-3 cells = assay: In vitro antiproliferative effects in OVCAR-3 cells (sulforhodamine B, 72 h); type: cell-based, human; conditions: for pIC50: 72 h
[2] = Stability of DOX-GA3 in stored control tissue homogenates and serum samples; type: in vitro ADME; conditions: up to 1 mM, up to 4 weeks at -20C (data not shown)
[3] = In vivo stability of the prodrug in non-tumour bearing mice; conditions: DOX-GA3 250 mg kg-1, t = 30 min
[4] = Maximum tolerated dose in OVCAR-3-bearing nude mice
human β-glucuronidase = target: T1, human β-glucuronidase (Homo sapiens, UniProt P08236); conditions: pH 6.8, 37C, enzyme 1 g ml-1, 30 min, direct linear plots
T1 sequence (P08236 23-651): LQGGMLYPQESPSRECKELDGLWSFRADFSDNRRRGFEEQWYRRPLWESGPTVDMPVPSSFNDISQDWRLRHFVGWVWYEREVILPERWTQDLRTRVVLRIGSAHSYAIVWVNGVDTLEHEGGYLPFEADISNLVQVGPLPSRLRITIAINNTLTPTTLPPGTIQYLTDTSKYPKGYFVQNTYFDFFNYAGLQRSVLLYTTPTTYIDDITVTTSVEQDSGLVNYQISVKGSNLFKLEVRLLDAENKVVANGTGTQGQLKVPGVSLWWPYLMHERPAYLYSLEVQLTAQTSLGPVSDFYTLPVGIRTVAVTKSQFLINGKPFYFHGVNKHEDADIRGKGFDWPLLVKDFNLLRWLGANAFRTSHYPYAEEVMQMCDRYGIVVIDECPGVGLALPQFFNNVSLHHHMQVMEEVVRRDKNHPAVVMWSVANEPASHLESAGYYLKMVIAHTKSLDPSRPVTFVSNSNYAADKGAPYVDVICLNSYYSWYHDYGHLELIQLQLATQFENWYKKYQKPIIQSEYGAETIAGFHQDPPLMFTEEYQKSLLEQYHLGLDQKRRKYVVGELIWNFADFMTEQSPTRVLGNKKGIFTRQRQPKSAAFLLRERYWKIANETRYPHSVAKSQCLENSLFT

β-glucuronidase [5] = assay: Inhibition of β-glucuronidase activity by saccharolactone in samples; type: biochemical; conditions: 1 mM (data not shown)
[6] = DOX-GA3 250 mg kg-1 vs DOX 8 mg kg-1
[7] = after DOX 8 mg kg-1 or DOX-GA3 250 mg kg-1 i.v.

Question: With `O=C(O)[C@H]1O[C@@H](Oc2ccc([N+](=O)[O-])cc2)[C@H](O)[C@@H](O)[C@@H]1O` [4-nitrophenyl-glucuronide] as the compound, how does the Km (β-glucuronidase [1]) read?
Answer: 1300 µM

Question: Which “GI % (maximum growth inhibition)” value (OVCAR-3 xenografts; larger tumours (mean 400 mm3)) does the source give for `COc1cccc2c1C(=O)c1c(O)c3c(c(O)c1C2=O)C[C@@](O)(C(=O)CO)C[C@@H]3O[C@H]1C[C@H](N)[C@H](O)[C@H](C)O1` [DOX, Doxorubicin] here?
Answer: 52%

Question: And the “TD14 (tumour volume doubling time from a relative volume of 1 to 4)” value (OVCAR-3 xenografts; larger tumours)?
Answer: 21.5 days

Question: What about the “GI % (maximum growth inhibition)” value (OVCAR-3 xenografts; small tumours (mean 125 mm3)) of the same compound?
Answer: 56%

Question: And the “TD14 (tumour volume doubling time from a relative volume of 1 to 4)” value (OVCAR-3 xenografts; small tumours)?
Answer: 11.5 days

Question: And the “heart AUC of DOX, fold higher after DOX than after prodrug” value (nude, mouse, in vivo)?
Answer: 3.1 fold

Question: And the “kidney AUC of DOX, times lower after DOX than after prodrug” value (nude, mouse, in vivo)?
Answer: 2.0 times

Question: What about the “liver AUC of DOX, fold higher after DOX than after prodrug” value (nude, mouse, in vivo) of the same compound?
Answer: 1.8 fold

Question: And the pIC50 (OVCAR-3 cells; Homo sapiens)?
Answer: 6.92

Question: For `COc1cccc2c1C(=O)c1c(O)c3c(c(O)c1C2=O)C[C@@](O)(C(=O)CO)C[C@@H]3O[C@H]1C[C@H](NC(=O)OCc2ccc(NC(=O)O[C@@H]3O[C@H](C(=O)O)[C@@H](O)[C@H](O)[C@H]3O)cc2)[C@H](O)[C@H](C)O1` [DOX-GA3, N -[4-doxorubicin-N -carbonyl (oxymethyl)phenyl] O -β-glucuronyl carbamate], which “activation to doxorubicin on storage” value [2] is on record?
Answer: less than 0.1%

Question: And the “specific growth delay (SGD)” value (OVCAR-3 xenografts; larger tumours (mean 400 mm3), 500 mg kg-1 i.v. weekly x 2)?
Answer: 3.9

Question: What about the Weight loss (OVCAR-3 xenografts; larger tumours (mean 400 mm3)) of the same compound?
Answer: 9.6%

Question: What about the “GI % (maximum growth inhibition)” value (OVCAR-3 xenografts; larger tumours (mean 400 mm3)) of the same compound?
Answer: 88%

Question: And the “TD14 (tumour volume doubling time from a relative volume of 1 to 4)” value (OVCAR-3 xenografts; larger tumours)?
Answer: 75.1 days

Question: What about the “Weight day 14” value (OVCAR-3 xenografts; larger tumours) of the same compound?
Answer: 91.9%

Question: What about the Weight loss (OVCAR-3 xenografts; small tumours (mean 125 mm3)) of the same compound?
Answer: 5.1%

Question: And the “GI % (maximum growth inhibition)” value (OVCAR-3 xenografts; small tumours (mean 125 mm3))?
Answer: 87%

Question: What about the “TD14 (tumour volume doubling time from a relative volume of 1 to 4)” value (OVCAR-3 xenografts; small tumours) of the same compound?
Answer: 32.4 days

Question: And the “Weight day 14” value (OVCAR-3 xenografts; small tumours)?
Answer: 99.0%

Question: What about the “drug/prodrug ratio in plasma” value [3] of the same compound?
Answer: 0.001

Question: And the “maximum weight loss at MTD” value ([4]; 500 mg kg-1 i.v. weekly x 2)?
Answer: approximately 10%

Question: What about the “toxic deaths at MTD” value ([4]; 500 mg kg-1 i.v. weekly x 2) of the same compound?
Answer: No toxic deaths occurred

Question: What about the “molar amount that could be administered at an equitoxic dose, compared with parent drug” value ([4]; DOX-GA3 500 mg kg-1 x 2 vs DOX 8 mg kg-1 x 2) of the same compound?
Answer: 38 fold

Question: What about the MTD ([4]; i.v. weekly x 2, OVCAR-3-bearing mice) of the same compound?
Answer: 500 mg/kg

Question: And the Km (human β-glucuronidase)?
Answer: 1100 µM

Question: What about the Vmax (human β-glucuronidase) of the same compound?
Answer: 25.0 μmol min^–1mg^–1

Question: And the “tumour AUC of DOX, fold higher after DOX-GA3 than after DOX” value (DOX at MTD, prodrug at half of MTD)?
Answer: 10 fold

Question: What about the “times lower peak plasma concentration of DOX than after DOX” value (DOX-GA3 250 mg kg-1 i.v. vs DOX 8 mg kg-1 i.v.) of the same compound?
Answer: 7.6 times

Question: What about the “prodrug peak concentration in plasma” value (DOX-GA3 250 mg kg-1 i.v., t = 1 min) of the same compound?
Answer: 1370 nmol/mL

Question: And the “peak of DOX-GA3 in OVCAR-3 tumour tissue” value (DOX-GA3 250 mg kg-1 i.v., t = 30 min)?
Answer: 44.0 nmol/g

Question: What about the “fold higher DOX peak concentration in tumour than after DOX” value [6] of the same compound?
Answer: ~5 fold

Question: What about the “fold lower peak DOX concentration in normal tissues (heart) than after DOX” value [6] of the same compound?
Answer: up to 5 fold

Question: And the “DOX peak concentration in OVCAR-3 tumour tissue” value (after DOX 8 mg kg-1 (t = 1 min) or DOX-GA3 250 mg kg-1 (t = 2 h) i.v.)?
Answer: 9.57 nmol/g

Question: What about the “DOX peak concentration in heart” value [7] of the same compound?
Answer: 3.27 nmol/g

Question: And the “DOX peak concentration in kidney” value [7]?
Answer: 70.8 nmol/g

Question: And the “DOX peak concentration in liver” value [7]?
Answer: 14.2 nmol/g

Question: And the “DOX peak concentration in plasma” value [7]?
Answer: 2.17 nmol/mL

Question: What about the “drug targeting index (DTI), heart tissue” value (tumour vs heart) of the same compound?
Answer: 31.4

Question: What about the “drug targeting index (DTI), plasma” value (tumour vs plasma (surrogate for bone marrow)) of the same compound?
Answer: 81.4

Question: What about the “ratio of drug/prodrug in plasma” value (tumour-bearing animals, DOX-GA3 250 mg kg-1) of the same compound?
Answer: 0.002

Question: And the “times less capable of inhibiting cell growth than DOX” value (OVCAR-3 cells)?
Answer: more than 100 times

Question: And the pIC50 (OVCAR-3 cells)?
Answer: 4.66

Question: With `O.O=C(O)[C@@H](O)[C@H]1OC(=O)[C@H](O)[C@H]1O` [Saccharolactone, D-glucaric acid-1,4-lactone monohydrate] as the compound, how does the “activity of the enzyme abolished” value (β-glucuronidase [5]) read?
Answer: > 99%
